In patent publication US12054464B1, “Methyl 4-((5-(3-fluorophenyl)-4-phenyl-4H-1,2,4-triazol-3-ylthio)methyl)benzoate as an antimicrobial compound” (KING FAISAL UNIVERSITY, priority 2023, dated 2024) one finds melting point and inhibition zone data, which are given here for two compounds.

Each structure is given as a SMILES string.

One data set has as its system Aspergillus flavus. Kind of data set: agar plate disc-diffusion, antifungal activity by inhibition zone. Format: cell-based. As to the method: (§1) The agar plate disc-diffusion method was applied. Sterilized filter papers (6 mm in diameter) were wetted with 10 μL of a solution of methyl 4-((5-(3-fluorophenyl)-4-phenyl-4H-1,2,4-triazol-3-ylthio)methyl)benzoate (III) to be tested, containing 10 mg/mL in DMSO, and the discs were allowed to air dry. The discs were then placed onto the surface of agar plates (nutrient agar for bacteria and Sabouraud's dextrose agar for fungi) seeded with the test organism. Each plate contained 15 mL of the agar medium, previously seeded with 0.2 mL of the broth culture of each organism pregrown for 18 hours. The plates were incubated at 37 °C for 48 hours, and 72 hours for fungi. The inhibition zones were measured in mm. Discs impregnated with DMSO were used as a control, and its inhibition zone was subtracted from the tested compound actual inhibition zone.
(In general: In agar diffusion tests the substance spreads into inoculated agar from a disc or well.)

Data set [1] relates to Chrysosporium keratinophilum. Described as above. Format: cell-based. The protocol:
as §1

The next data set relates to Bacillus Cereus. Kind of data set: agar plate disc-diffusion, antibacterial activity by inhibition zone. Format: cell-based. The following applies: Bacillus Cereus (Gram positive). The protocol:
as §1

For another data set, the system named is Pseudomonas aeruginosa. The data set is described as above. The following applies: Pseudomonas aeruginosa (Gram negative). Format: cell-based. As to the method:
as §1

A further data set has as its system Escherichia coli. Described as above. The following applies: Escherichia coli (Gram negative). The data set is classed as cell-based. The protocol: as §1
Another data set has as its system Staphylococcus aureus. Described as above. Format: cell-based. The following applies: Staphylococcus aureus (Gram positive). The protocol: as §1
[2] abbreviates: A = concentration of comp. = 10,000 μL.
The mark [3] stands for this setting: B = concentration of comp. = 30,000 μL.
Where [4] appears, read: C = concentration of comp. = 50,000 μL.

Take `COC(=O)c1ccc(CSc2nnc(-c3cccc(F)c3)n2-c2ccccc2)cc1` [III, methyl 4-((5-(3-fluorophenyl)-4-phenyl-4H-1,2,4-triazol-3-ylthio)methyl)benzoate]: the melting point (as a rule, the temperature, or range, at which the solid turns liquid) lay in the range of 185 to 186 °C. The compound also came in with an inhibition zone with Aspergillus flavus (setting [2]) of 19 mm. Besides, in the data set with Aspergillus flavus (setting [3]), the inhibition zone stood at 24 mm. The compound further had an inhibition zone with Aspergillus flavus (setting [4]) of 34 mm. The same compound had an inhibition zone in data set [1] (setting [2]) of 28 mm. In data set [1] (setting [3]), this compound showed an inhibition zone of 30 mm. Also, the inhibition zone in data set [1] (setting [4]) is 49 mm. The inhibition zone in the data set on Bacillus Cereus (setting [2]) is 28 mm. In the data set with Bacillus Cereus (setting [3]), this compound displayed an inhibition zone of 29 mm. The inhibition zone in the data set with Bacillus Cereus (setting [4]) is 40 mm. The compound further gave an inhibition zone in the data set with Pseudomonas aeruginosa (setting [2]) of 24 mm. In the data set on Pseudomonas aeruginosa (setting [3]), this compound returned an inhibition zone of 33 mm. The inhibition zone with Pseudomonas aeruginosa (setting [4]) was 40 mm. In the data set with Escherichia coli (setting [2]), the inhibition zone came to 29 mm. In the data set with Escherichia coli (setting [3]), this compound gave an inhibition zone of 38 mm. In addition, the inhibition zone in the data set on Escherichia coli (setting [4]) amounted to 54 mm. In the data set on Staphylococcus aureus (setting [2]), this compound yielded an inhibition zone of 14 mm. For the same compound, the inhibition zone in the data set with Staphylococcus aureus (setting [3]) stood at 20 mm. The inhibition zone in the data set with Staphylococcus aureus (setting [4]) is recorded as 23 mm.
Regarding `O=C(O)c1cn(C2CC2)c2cc(N3CCNCC3)c(F)cc2c1=O` [Cip., ciprofloxacin, reference compound], the inhibition zone with Aspergillus flavus (setting [2]) is on record as 29 mm; with Aspergillus flavus (setting [3]), 30 mm; in the data set with Aspergillus flavus (setting [4]), 42 mm; in data set [1] (setting [2]), 29 mm; in data set [1] (setting [3]), 30 mm; in data set [1] (setting [4]), 53 mm. Besides, the inhibition zone in the data set on Bacillus Cereus (setting [2]) came out at 29 mm; in the data set with Bacillus Cereus (setting [3]) it was 30 mm; in the data set with Bacillus Cereus (setting [4]), 42 mm; in the data set with Pseudomonas aeruginosa (setting [2]), 29 mm; in the data set on Pseudomonas aeruginosa (setting [3]), 30 mm; in the data set with Pseudomonas aeruginosa (setting [4]), 53 mm. The inhibition zone in the data set on Escherichia coli (setting [2]) is recorded as 30 mm; with Escherichia coli (setting [3]), 39 mm; with Escherichia coli (setting [4]), 60 mm; in the data set with Staphylococcus aureus (setting [2]) it was 43 mm; in the data set on Staphylococcus aureus (setting [3]), 44 mm; in the data set on Staphylococcus aureus (setting [4]) it was 53 mm.
